A short description of assay [1]: Ability to inhibit [3H]-SCH- 23390 binding to Dopamine receptor D1 of canine striatal membranes.
Assay in assay [2]: as above
This is another data set of the same source.

The structures appear in SMILES notation.

For `CN1CCc2cc(I)c(O)cc2[C@H](c2ccc(N=[N+]=[N-])cc2)C1`, in assay [1], the Kd (usually the free concentration of one partner at which half of the binding sites on the other are occupied at equilibrium, for simple one-to-one binding) turned out to be 0.28 nM. Regarding `CN1CCc2cc(I)c(O)cc2[C@@H](c2ccc(N=[N+]=[N-])cc2)C1`, the affinity in assay [2], expressed as Ki, was 28 nM.

These data come from BindingDB's records for doi:10.1021/jm00164a009 (Research Biochemicals, 1990).
